Results from ChEMBL document CHEMBL2346513, “Synthesis and evaluation of methylsulfonylnitrobenzamides (MSNBAs) as inhibitors of the thyroid hormone receptor-coactivator interaction” (Bioorg Med Chem Lett, 2013).

How the values were obtained:
HepG2 = test: Cytotoxicity against human HepG2 cells assessed as ATP level after 72 hrs by CellTiter-Glo assay; type: cell-based; details: HepG2, 72 h
Vitamin D3 receptor = molecular target: T1, Vitamin D3 receptor (Homo sapiens, UniProt P11473); test: Inhibition of VDR (unknown origin) interaction to SRC2-3 peptide by fluorescence polarization assay
T1 sequence (P11473 whole entry): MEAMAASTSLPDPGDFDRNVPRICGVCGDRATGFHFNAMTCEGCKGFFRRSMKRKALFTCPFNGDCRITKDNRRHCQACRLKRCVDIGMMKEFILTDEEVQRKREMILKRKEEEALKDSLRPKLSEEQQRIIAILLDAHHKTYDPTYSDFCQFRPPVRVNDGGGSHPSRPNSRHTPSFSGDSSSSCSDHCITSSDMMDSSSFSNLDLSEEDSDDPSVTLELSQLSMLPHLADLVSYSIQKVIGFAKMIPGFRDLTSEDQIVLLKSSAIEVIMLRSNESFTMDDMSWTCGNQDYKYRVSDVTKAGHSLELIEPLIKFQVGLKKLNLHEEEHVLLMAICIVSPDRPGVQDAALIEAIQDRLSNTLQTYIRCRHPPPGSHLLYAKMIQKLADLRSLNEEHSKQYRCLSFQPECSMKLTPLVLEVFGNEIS

[1] = molecular target: T2, Thyroid hormone receptor beta (Homo sapiens, UniProt P10828); test: Inhibition of TRbeta-LBD (unknown origin) interaction to texas red-labeled SRC2-2 peptide by fluorescence polarization assay
T2 sequence (P10828 whole entry): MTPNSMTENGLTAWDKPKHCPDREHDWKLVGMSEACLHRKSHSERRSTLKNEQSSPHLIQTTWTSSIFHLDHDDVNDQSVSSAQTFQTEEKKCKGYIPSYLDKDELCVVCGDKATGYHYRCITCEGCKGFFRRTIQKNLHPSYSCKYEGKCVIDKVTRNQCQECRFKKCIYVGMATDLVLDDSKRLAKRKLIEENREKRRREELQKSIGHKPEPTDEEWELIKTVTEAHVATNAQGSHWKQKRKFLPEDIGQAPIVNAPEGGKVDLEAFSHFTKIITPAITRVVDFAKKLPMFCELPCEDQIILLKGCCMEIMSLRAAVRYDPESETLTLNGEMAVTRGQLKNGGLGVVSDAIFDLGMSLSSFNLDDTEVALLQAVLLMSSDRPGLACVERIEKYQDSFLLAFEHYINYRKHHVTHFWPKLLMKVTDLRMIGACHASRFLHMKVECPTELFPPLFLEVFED

[2] = molecular target: T3, Thyroid hormone receptor alpha (Homo sapiens, UniProt P10827); test: Inhibition of TRalpha-LBD (unknown origin) interaction to texas red-labeled SRC2-2 peptide by fluorescence polarization assay
T3 sequence (P10827 whole entry): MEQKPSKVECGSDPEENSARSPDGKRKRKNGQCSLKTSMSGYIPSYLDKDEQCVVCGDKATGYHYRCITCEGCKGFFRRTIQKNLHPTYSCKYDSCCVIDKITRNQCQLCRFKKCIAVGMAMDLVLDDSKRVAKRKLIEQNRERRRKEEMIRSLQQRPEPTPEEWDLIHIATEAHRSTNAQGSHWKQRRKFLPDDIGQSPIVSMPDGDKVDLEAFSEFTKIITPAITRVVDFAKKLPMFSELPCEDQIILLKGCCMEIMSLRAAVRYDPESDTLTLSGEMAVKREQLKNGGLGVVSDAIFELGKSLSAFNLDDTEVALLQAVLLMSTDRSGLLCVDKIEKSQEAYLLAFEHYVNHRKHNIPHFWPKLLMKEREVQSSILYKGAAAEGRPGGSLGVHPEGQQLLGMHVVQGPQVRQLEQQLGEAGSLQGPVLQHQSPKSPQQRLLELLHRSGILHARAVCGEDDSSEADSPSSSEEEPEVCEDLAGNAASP

Row | SMILES | EC50 (HepG2) | IC50 (Vitamin D3 receptor) | IC50 [1] | IC50 [2]
1 | CS(=O)(=O)c1ccc(C(=O)NCC(=O)N2CCN(c3ccccc3F)CC2)cc1[N+](=O)[O-] | > 27 µM | > 60 µM | > 60 µM | > 60 µM
2 | CS(=O)(=O)c1ccc(C(=O)NCCCC(=O)N2Cc3ccccc3C2)cc1[N+](=O)[O-] | > 27 µM | > 60 µM | > 60 µM | > 60 µM
3 | CS(=O)(=O)c1ccc(C(=O)NCCC(=O)N2CCCCC2)cc1[N+](=O)[O-] | > 27 µM | > 60 µM | > 60 µM | > 60 µM
4 | CS(=O)(=O)c1ccc(C(=O)N2CCC(C(=O)N3CCc4ccccc4C3)CC2)cc1[N+](=O)[O-] | > 27 µM | > 60 µM | > 60 µM | > 60 µM
5 | CS(=O)(=O)c1ccc(C(=O)NCC(=O)N(Cc2ccccc2)c2ccccc2)cc1[N+](=O)[O-] | > 27 µM | > 60 µM | 20 µM | > 60 µM
6 | CC1Cc2ccccc2N1C(=O)CCCNC(=O)c1ccc(S(C)(=O)=O)c([N+](=O)[O-])c1 (stereo not given) | > 27 µM | > 60 µM | > 60 µM | > 60 µM
7 | CS(=O)(=O)c1ccc(C(=O)NCCC(=O)N2CCN(c3ccc(C(F)(F)F)cc3)CC2)cc1[N+](=O)[O-] | > 27 µM | > 60 µM | > 60 µM | > 60 µM
8 | CS(=O)(=O)c1ccc(C(=O)NCCCC(=O)NC23CC4CC(CC(C4)C2)C3)cc1[N+](=O)[O-] | > 27 µM | > 60 µM | 10.6 µM | > 60 µM
9 | CS(=O)(=O)c1ccc(C(=O)N2CCC(C(=O)N3CCC(c4ccccc4)CC3)CC2)cc1[N+](=O)[O-] | > 27 µM | > 60 µM | > 60 µM | > 60 µM
10 | CS(=O)(=O)c1ccc(C(=O)NCC(=O)NC23CC4CC(CC(C4)C2)C3)cc1[N+](=O)[O-] | > 27 µM | > 60 µM | 16 µM | 9.6 µM
11 | CN(Cc1cccc(F)c1)C(=O)CCCNC(=O)c1ccc(S(C)(=O)=O)c([N+](=O)[O-])c1 | > 27 µM | > 60 µM | > 60 µM | > 60 µM
12 | CS(=O)(=O)c1ccc(C(=O)NCC(=O)N2CCN(c3ccccc3)CC2)cc1[N+](=O)[O-] | > 27 µM | > 60 µM | > 60 µM | > 60 µM
13 | CS(=O)(=O)c1ccc(C(=O)N2CCC(C(=O)N(Cc3ccccc3)Cc3ccccc3)CC2)cc1[N+](=O)[O-] | > 27 µM | > 60 µM | > 60 µM | > 60 µM
14 | CN1CCN(C(=O)C2CCN(C(=O)c3ccc(S(C)(=O)=O)c([N+](=O)[O-])c3)CC2)CC1 | > 27 µM | > 60 µM | > 60 µM | > 60 µM
15 | CS(=O)(=O)c1ccc(C(=O)NCCCC(=O)N(Cc2ccccc2)Cc2ccccc2)cc1[N+](=O)[O-] | > 27 µM | > 60 µM | 59 µM | 29 µM
16 | CN(CC(=O)N(Cc1ccccc1)Cc1ccccc1)C(=O)c1ccc(S(C)(=O)=O)c([N+](=O)[O-])c1 | > 27 µM | > 60 µM | > 60 µM | > 60 µM
17 | CN(Cc1ccccc1)C(=O)CCNC(=O)c1ccc(S(C)(=O)=O)c([N+](=O)[O-])c1 | > 27 µM | > 60 µM | > 60 µM | > 60 µM
18 | CN(CC(=O)N1CCN(c2ccc(C(F)(F)F)cc2)CC1)C(=O)c1ccc(S(C)(=O)=O)c([N+](=O)[O-])c1 | 11.9 µM | > 60 µM | > 60 µM | > 60 µM
19 | CN(C(=O)CCCNC(=O)c1ccc(S(C)(=O)=O)c([N+](=O)[O-])c1)c1ccccc1 | > 27 µM | > 60 µM | > 60 µM | > 60 µM
20 | Cc1ccc(N2CCN(C(=O)CCNC(=O)c3ccc(S(C)(=O)=O)c([N+](=O)[O-])c3)CC2)cc1 | > 27 µM | > 60 µM | > 60 µM | > 60 µM

Row | SMILES | EC50 (HepG2) | IC50 (Vitamin D3 receptor) | IC50 [1] | IC50 [2]
21 | CC1CCN(C(=O)CCCNC(=O)c2ccc(S(C)(=O)=O)c([N+](=O)[O-])c2)CC1 | > 27 µM | > 60 µM | > 60 µM | > 60 µM
22 | CS(=O)(=O)c1ccc(C(=O)NCCC(=O)N2CCCc3ccccc32)cc1[N+](=O)[O-] | 10.5 µM | > 60 µM | > 60 µM | > 60 µM
23 | CN(CC(=O)N1CCc2ccccc2C1)C(=O)c1ccc(S(C)(=O)=O)c([N+](=O)[O-])c1 | > 27 µM | > 60 µM | > 60 µM | > 60 µM
24 | CN(CC(=O)NC12CC3CC(CC(C3)C1)C2)C(=O)c1ccc(S(C)(=O)=O)c([N+](=O)[O-])c1 | > 27 µM | > 60 µM | > 60 µM | > 60 µM
25 | CN(CC(=O)N1Cc2ccccc2C1)C(=O)c1ccc(S(C)(=O)=O)c([N+](=O)[O-])c1 | > 27 µM | > 60 µM | > 60 µM | > 60 µM
26 | CS(=O)(=O)c1ccc(C(=O)NCC(=O)N2CCCCC2)cc1[N+](=O)[O-] | 14 µM | > 60 µM | > 60 µM | 44 µM
27 | CS(=O)(=O)c1ccc(C(=O)NCC(=O)N2CCc3ccccc3C2)cc1[N+](=O)[O-] | > 27 µM | 50 µM | 46 µM | > 60 µM
28 | CN(CC(=O)N1CCCCC1)C(=O)c1ccc(S(C)(=O)=O)c([N+](=O)[O-])c1 | 11.3 µM | > 60 µM | > 60 µM | > 60 µM
29 | CC(C)N(C(=O)C1CCN(C(=O)c2ccc(S(C)(=O)=O)c([N+](=O)[O-])c2)CC1)C(C)C | > 27 µM | > 60 µM | > 60 µM | > 60 µM
30 | CS(=O)(=O)c1ccc(C(=O)NCC(=O)N2CCN(c3ccc(C(F)(F)F)cc3)CC2)cc1[N+](=O)[O-] | > 27 µM | > 60 µM | > 60 µM | > 60 µM
31 | CS(=O)(=O)c1ccc(C(=O)NCCC(=O)NC23CC4CC(CC(C4)C2)C3)cc1[N+](=O)[O-] | > 27 µM | 44 µM | 31 µM | 25 µM
32 | CS(=O)(=O)c1ccc(C(=O)NCCC(=O)N(Cc2ccccc2)Cc2ccccc2)cc1[N+](=O)[O-] | > 27 µM | 38 µM | > 60 µM | 33 µM
33 | CS(=O)(=O)c1ccc(C(=O)NCCC(=O)N2CCc3ccccc3C2)cc1[N+](=O)[O-] | > 27 µM | > 60 µM | > 60 µM | > 60 µM
34 | Cc1ccc(N2CCN(C(=O)C3CCN(C(=O)c4ccc(S(C)(=O)=O)c([N+](=O)[O-])c4)CC3)CC2)cc1 | > 27 µM | > 60 µM | > 60 µM | > 60 µM
35 | CN(C(=O)CCNC(=O)c1ccc(S(C)(=O)=O)c([N+](=O)[O-])c1)c1ccccc1 | > 27 µM | > 60 µM | > 60 µM | 37 µM
36 | CC(C)N(C(=O)CCNC(=O)c1ccc(S(C)(=O)=O)c([N+](=O)[O-])c1)C(C)C | > 27 µM | > 60 µM | > 60 µM | > 60 µM
37 | CC1CCN(C(=O)CN(C)C(=O)c2ccc(S(C)(=O)=O)c([N+](=O)[O-])c2)CC1 | > 27 µM | > 60 µM | > 60 µM | > 60 µM
38 | CN(Cc1cccc(F)c1)C(=O)CNC(=O)c1ccc(S(C)(=O)=O)c([N+](=O)[O-])c1 | > 27 µM | > 60 µM | > 60 µM | > 60 µM
39 | CCCN(C(=O)CCNC(=O)c1ccc(S(C)(=O)=O)c([N+](=O)[O-])c1)c1ccccc1 | > 27 µM | 40 µM | 50 µM | 32 µM
40 | CN(CC(=O)N1CCN(c2ccc(F)cc2)CC1)C(=O)c1ccc(S(C)(=O)=O)c([N+](=O)[O-])c1 | 17.2 µM | > 60 µM | > 60 µM | > 60 µM
